Measured values reported in patent US7259265B2, “Coumarin compounds and method for preparing and using the same” (Shanghai Institute of Organic Chemistry, Chinese Academy of …, priority 2003, dated 2007).
Values after ≈ are worked out from the molar mass of the structure shown. Where two headings read alike, the source gives them in different places.

Key:
[1] = system: candida Albicans 02-6; test: In vivo protective test in infected mice; conditions: for ED50: infection 2.07 × 10^4 CFU/ml; for Survival: 10 mice, within 7 days after infection
Protocol: 2˜3 monocolonies of selected tested fungus were inoculated in Sabouraud liquor culture medium, which was cultured for 18 hours at 37° C., and then it was diluted with 5% sterilized dried yeast liquor for next uses.
3. Healthy mice (lived in Kunming, China) weighed 18˜22 g were divided into groups randomly with 5 mice in each group. The fungal liquor 0.5 ml was injected into a mouse, which was observed continuously for 7 days after infection. Mortality of the mice was recorded, and the minimum fungal dose that caused the mice be with a 100% mortality was named as MLD, which also was regarded as infection fungal dose in vivo protective test.
All test drugs were confected to requested concentration with 0.5% CMC including Fluoroconazole and 4,4′-biisofraxidin.
Test mice were divided into groups randomly according to gender and weight, 5 males and 5 females in each group. The infection fungal liquor 0.5 ml was injected into each mouse at the abdominal region at 0.5 ml per mouse. Two hours prior to the infection and 4 hours after infection, mice were orally administered with Fluoroconazole or 4,4′-biisofraxidin by intragastric gavage at various concentration. The comparative group was tested at the same time. Mortality was recorded within 7 days after infection, and effective dosage at half (median effective dose, ED50) and 95% confidence limit were calculated by the Bliss's method. Fluoroconazole and 4,4′-biisofraxidin were tested on their in vivo protection activity on candida Albicans 02-6 infected mice, and ED50 was calculated by the Bliss's method at 95% confidence limit.

[2] = system: S. Typhimurium TA97, TA98, TA 100, and TA102; test: Bacteria reverse mutation test; format: cell-based; conditions: without S9
Protocol: According to the conditions of mutation test in the Guide Compilation of New Medicament (Western Medicament) Before Clinic (Pharmacy, Pharmacology, and Toxicology) (Edition July 1993, Bureau of Pharmaceutical Policy, Chinese Department of Health), 4,4′-biisofraxidin was tested at a dosage of 5, 50, 500, 1000, and 5000 μg/dish in the system without S9.

[3] = Acute toxicity test, oral, ICR mice (Example 22); conditions: for mortality: single oral dose (5 g/kg for 4,4′-biisofraxidin)
Excerpt: Acute toxicity of 4,4′-biisofraxidin and Fluoconazole were simultaneously evaluated and the toxicity reaction and mortality were observed and compared for values of LD50 for ICR mice which were orally administered with 4,4′-biisofraxidin or Fluoconazole.

[4] = Acute toxicity test in vivo in mice (Example 21); conditions: for death: after testing 14 days, 14 mice (4,4′-biisofraxidin), 4 mice (Fluoroconazole)
[5] = system: candida Albicans; test: Inhibiting zone on candida Albicans; format: cell-based; conditions: at the concentration of 10 μg/ml
Protocol: [drawing 30] was tested by Jiangsu Hengrui Pharmaceutical Co., Ltd. The bioactivity against fungal infection of various antibiotics were tested.

[6] = system: mice medulla polychromatic erythrocyte; test: Micronucleus test of mice medulla; format: in vivo, ICR mice
Protocol: Seventy ICR mice were randomly divided into 7 groups with 10 mice per group having 5 males and 5 females in each group. The maximum tolerance dose (MTD) of the mice was more than 5000 mg/kg for 4,4′-biisofraxidin by intragastric gavage, so that the maximum dosage was 5000 mg/kg. Four dosage groups were set up with dosage amount of 5000, 2500, 1250, and 625 mg/kg, one negative and one positive control group. The intragastric gavage was carried out at once per day consecutively for 2 days. Samples were taken at 24 hours after the last intragastric administration and inspected under microscope.

[7] = system: candida Albicans CMCC; test: In vitro drug sensitivity MIC test; format: cell-based
Protocol: (§1) The tested fungi were confected to a suspension with normal saline, and further diluted to a suspension with the turbidity of more than 2.0 McFarland Standards (McF). Then, the suspension was diluted 100 times with normal saline, and diluted 10 times with RPMI1640, and the sample was diluted 2 times, which was cultured for 72 to 96 hours at a 96-well culture dish while being gently agitated and assayed for photoelectric colorimetric assay at 490 nm.
(§2) Tested fungi include Saccharomyces, candida Albicans 01-5, 01-1, 02-6, candida Albicans CMCC, Aspergillus niger, Cryptococcus neoformans, Trichophyton rubrum, and Trichophyton verrucosum and MIC Results were listed at Table 2.

[8] = system: Trichophyton rubrum; test: In vitro drug sensitivity MIC test; format: cell-based
Protocol: as §1, §2

[9] = system: candida Albicans; test: In vitro drug sensitivity MIC test; format: cell-based
Protocol: as §1, §2

[10] = system: candida Albicans 01-5; test: In vitro drug sensitivity MIC test; format: cell-based
Protocol: as §1, §2

[11] = system: Aspergillus niger; test: In vitro drug sensitivity MIC test; format: cell-based
Protocol: as §1, §2

[12] = system: Cryptococcus neoformans; test: In vitro drug sensitivity MIC test; format: cell-based
Protocol: as §1, §2

[13] = system: candida Albicans 01-1; test: In vitro drug sensitivity MIC test; format: cell-based
Protocol: as §1, §2

[14] = system: Trichophyton verrucosum; test: In vitro drug sensitivity MIC test; format: cell-based
Protocol: as §1, §2

[15] = system: Saccharomyces; test: In vitro drug sensitivity MIC test; format: cell-based
Protocol: as §1, §2

[16] = system: candida Albicans 02-6; test: In vitro drug sensitivity MIC test; format: cell-based
Protocol: as §1, §2

[17] = system: CHL cell; test: Chromosome aberration test of CHL mammal cell; format: cell-based; conditions: for mutagenicity: 24 hours, -S9
Protocol: The purpose of the Example was to assess whether 4,4′-biisofraxidin caused the chromosome aberration of CHL cell. Firstly, Median Inhibitory Concentration (IC50) was obtained by general method and regarded as the maximum dosage. Then, the maximum dosage was diluted at 0.5 time at multiple times to get three dosage groups. The experiment was conducted at a —S9 system (without hamster liver S9 system). […] The antifungal compound was added to the cultured cell directly for 24 hours in order to observe whether 4,4′-biisofraxidin caused chromosome aberration in CHL cell. […] Therefore, 4,4′-biisofraxidin was a weak mutagen at a relatively high dosage under the test conditions.

[18] = Comparison of liver toxicity, serum ALT/AST of ICR mice; format: in vivo; conditions: 1.6 g/kg oral, mean (values of each sample)
Protocol: ICR mice were orally administered with 4,4′-biisofraxidin or Fluoconazole at the same dosage of 1.6 g/kg, and blood samples were taken at 4 hours and 24 hours after the administration, and serum was separated from blood samples for testing liver indices of asparate aminotransferase test (AST) and alanine aminotransferase test (ALT).

[19] = drug dose 65.5 mg/kg, intragastric gavage
[20] = drug dose 89.2 mg/kg, intragastric gavage
[21] = drug dose 102.4 mg/kg, intragastric gavage
[22] = drug dose 128 mg/kg, intragastric gavage
[23] = drug dose 160 mg/kg, intragastric gavage
[24] = drug dose 200 mg/kg, intragastric gavage
[25] = candida Albicans, second strain without code (r8)

4,4′-biisofraxidin
95% confidence limit of ED50 ([1]; Bliss's method): (127.97–130.7) mg/kg
ED50 ([1]; Bliss's method, intragastric gavage): 149.50 mg/kg
Survival rate (%) [1, 19]: 0%
Survival [1, 19]: 0
Survival rate (%) [1, 20]: 10%
Survival [1, 20]: 1
Survival rate (%) [1, 21]: 20%
Survival [1, 21]: 3
Survival rate (%) [1, 22]: 40%
Survival [1, 22]: 4
Survival rate (%) [1, 23]: 60%
Survival [1, 23]: 6
Survival rate (%) [1, 24]: 70%
Survival [1, 24]: 7
protective effect in vivo ([1]; intragastric gavage): obvious protective effect
effect on growth of bacteria ([2]; high dose 5000 μg/dish): inhibit the growth
gene mutation ([2]; other dosages): couldn't induce gene mutation
effect on growth of bacteria ([2]; other four doses (5, 50, 500, 1000 μg/dish)): no obvious effect
toxicity reaction ([3]; single oral dose): no obvious toxicity reaction
mortality [3]: 0/10
MTD ([3]; single oral dose, 14 days observation): higher than 5 g/kg
death [4]: no death
MTD ([4]; mice, 14 days): more than 5 g/kg
half lethal dose (LD50) ([4]; mice, 14 days): undetectable
inhibiting zone [5]: 10 mm
micronucleus number ([6]; 5000, 2500, 1250, 625 mg/kg, intragastric, once per day for 2 days, 24 hours after last dose): no effect on inducing increase in micronucleus number
maximum tolerance dose (MTD) ([6]; mice, intragastric gavage): more than 5000 mg/kg
MIC [7]: >128 µg/mL
MIC [8]: 16 µg/mL
MIC ([9]; candida Albican, summary in the conclusion): ≥ 128 µg/mL
MIC ([9]; candida Albicans, first strain without code (r7)): 64 µg/mL
MIC [9, 25]: >128 µg/mL
MIC ([10]; candida Albicans 01-5): 64 µg/mL
MIC [11]: 128 µg/mL
MIC [12]: 64 µg/mL
MIC ([13]; candida Albicans 01-1): 64 µg/mL
MIC [14]: 128 µg/mL
MIC [15]: >128 µg/mL
MIC [16]: 32 µg/mL
Median Inhibitory Concentration (IC50) ([17]; CHL cell): 248 µg/mL
mutagenicity ([17]; high dosage 248 μg/ml): 12%
mutagenicity ([17]; low to medium dosage (62, 124 μg/ml)): 1%
chromosome aberration conclusion ([17]; relatively high dosage): weak mutagen

OC(Cn1cncn1)(Cn1cncn1)c1ccc(F)cc1F [Fluoroconazole, reference compound]
ED50 ([1]; Candida albicans, Bliss's method, intragastric gavage, read-out: ED50): 136 mg/kg
Survival rate (%) [1, 19]: 0%
Survival [1, 19]: 0
Survival rate (%) [1, 20]: 20%
Survival [1, 20]: 2
Survival rate (%) [1, 21]: 40%
Survival [1, 21]: 4
Survival rate (%) [1, 22]: 40%
Survival [1, 22]: 4
Survival rate (%) [1, 23]: 60%
Survival [1, 23]: 6
Survival rate (%) [1, 24]: 80%
Survival [1, 24]: 8
toxicity reaction ([3]; single oral dose): dispirited and inert
mortality [3]: 2/4
LD50 at 14 days ([4]; ICR, mouse, in vivo, 1.6 g/kg): ~1600 mg/kg
death [4]: 2
toxicity relative to 4,4′-biisofraxidin ([4]; mouse, in vivo): three times larger
MIC ([7]; read-out: MIC): 64 µg/mL (≈ 209 µM)
MIC ([8]; read-out: MIC): 16 µg/mL (≈ 52.2 µM)
MIC ([9]; Candida albicans): > 128 µg/mL
MIC [9, 25]: >128 µg/mL
MIC ([10]; Candida albicans): 128 µg/mL (≈ 418 µM)
MIC [11]: > 128 µg/mL
MIC ([12]; read-out: MIC): 16 µg/mL (≈ 52.2 µM)
MIC ([13]; Candida albicans): 128 µg/mL (≈ 418 µM)
MIC [14]: 128 µg/mL (≈ 418 µM)
MIC ([15]; read-out: MIC): 64 µg/mL (≈ 209 µM)
MIC ([16]; read-out: MIC): 64 µg/mL (≈ 209 µM)
ALT (U/L) ([18]; 4 hours after treatment): 84.5 (87, 82) U/L
AST (U/L) ([18]; 4 hours after treatment): 189.5 (155, 224) U/L
ALT (U/L) ([18]; 24 hours after treatment): 53.5 (40, 67) U/L
AST (U/L) ([18]; 24 hours after treatment): 99 (73, 125) U/L
